Measurements taken from the NIST ThermoML archive (doi:10.1021/acs.jced.8b00201).
± gives the expanded uncertainty stated by the source.

Assay: xn = mol fraction of the nth substance listed
Conditions: 100 kPa, Liquid; for viscosity: Concentric cylinders viscometry; for mass density: Vibrating tube method

O=C1CCCCC1 [cyclohexanone] + CCCCCCCCCCO
Conditions | mass density [kg/m3] | viscosity [mPa·s]
293.15 K, x1 = 0.0807 | 834.5 ± 20 | 12.23 ± 0.62
293.15 K, x1 = 0.1613 | 840 ± 20 | 10.39 ± 0.52
293.15 K, x1 = 0.2387 | 845.6 ± 20 | 8.73 ± 0.44
293.15 K, x1 = 0.3519 | 855.1 ± 20 | 6.64 ± 0.34
293.15 K, x1 = 0.4407 | 863.4 ± 20 | 5.35 ± 0.27
293.15 K, x1 = 0.5568 | 875.9 ± 20 | 3.94 ± 0.2
293.15 K, x1 = 0.6517 | 887.7 ± 20 | 3.08 ± 0.16
293.15 K, x1 = 0.7412 | 900.4 ± 20 | 2.54 ± 0.13
293.15 K, x1 = 0.8518 | 918.6 ± 20 | 2.22 ± 0.11
293.15 K, x1 = 0.9441 | 936.5 ± 20 | 2.17 ± 0.11
293.15 K, x1 = 1 | 948.8 ± 20 | 2.3 ± 0.12
298.15 K, x1 = 0.0807 | 830.9 ± 20 | 10 ± 0.5
298.15 K, x1 = 0.1613 | 836.4 ± 20 | 8.43 ± 0.42
298.15 K, x1 = 0.2387 | 841.8 ± 20 | 7.18 ± 0.36
298.15 K, x1 = 0.3519 | 851 ± 20 | 5.67 ± 0.29
298.15 K, x1 = 0.4407 | 859.2 ± 20 | 4.69 ± 0.24
298.15 K, x1 = 0.5568 | 871.4 ± 20 | 3.56 ± 0.18
298.15 K, x1 = 0.6517 | 883 ± 20 | 2.87 ± 0.15
298.15 K, x1 = 0.7412 | 895.4 ± 20 | 2.43 ± 0.12
298.15 K, x1 = 0.8518 | 913.3 ± 20 | 2.13 ± 0.11
298.15 K, x1 = 0.9441 | 930.9 ± 20 | 2.08 ± 0.11
298.15 K, x1 = 1 | 943.1 ± 20 | 2.09 ± 0.11
303.15 K, x1 = 0.0807 | 827.4 ± 20 | 8.39 ± 0.42
303.15 K, x1 = 0.1613 | 832.6 ± 20 | 7.21 ± 0.36
303.15 K, x1 = 0.2387 | 838.1 ± 20 | 6.19 ± 0.31
303.15 K, x1 = 0.3519 | 847.2 ± 20 | 4.87 ± 0.25
303.15 K, x1 = 0.4407 | 855.2 ± 20 | 4.04 ± 0.2
303.15 K, x1 = 0.5568 | 867.3 ± 20 | 3.16 ± 0.16
303.15 K, x1 = 0.6517 | 878.7 ± 20 | 2.6 ± 0.13
303.15 K, x1 = 0.7412 | 891 ± 20 | 2.23 ± 0.11
303.15 K, x1 = 0.8518 | 908.7 ± 20 | 1.97 ± 0.1
303.15 K, x1 = 0.9441 | 926.1 ± 20 | 1.89 ± 0.1
303.15 K, x1 = 1 | 938.2 ± 20 | 1.91 ± 0.1
308.15 K, x1 = 0.0807 | 823.9 ± 20 | 7.09 ± 0.36
308.15 K, x1 = 0.1613 | 829.1 ± 20 | 6.14 ± 0.31
308.15 K, x1 = 0.2387 | 834.5 ± 20 | 5.38 ± 0.27
308.15 K, x1 = 0.3519 | 843.4 ± 20 | 4.37 ± 0.22
308.15 K, x1 = 0.4407 | 851.4 ± 20 | 3.69 ± 0.19
308.15 K, x1 = 0.5568 | 863.3 ± 20 | 2.94 ± 0.15
308.15 K, x1 = 0.6517 | 874.6 ± 20 | 2.45 ± 0.12
308.15 K, x1 = 0.7412 | 886.7 ± 20 | 2.11 ± 0.11
308.15 K, x1 = 0.8518 | 904.2 ± 20 | 1.84 ± 0.09
308.15 K, x1 = 0.9441 | 921.5 ± 20 | 1.73 ± 0.09
308.15 K, x1 = 1 | 933.5 ± 20 | 1.75 ± 0.09
313.15 K, x1 = 0.0807 | 820.4 ± 20 | 5.99 ± 0.3
313.15 K, x1 = 0.1613 | 825.5 ± 20 | 5.26 ± 0.26
313.15 K, x1 = 0.2387 | 830.8 ± 20 | 4.6 ± 0.23
313.15 K, x1 = 0.3519 | 839.6 ± 20 | 3.75 ± 0.19
313.15 K, x1 = 0.4407 | 847.4 ± 20 | 3.17 ± 0.16
313.15 K, x1 = 0.5568 | 859.2 ± 20 | 2.6 ± 0.13
313.15 K, x1 = 0.6517 | 870.3 ± 20 | 2.21 ± 0.11
313.15 K, x1 = 0.7412 | 882.4 ± 20 | 1.92 ± 0.1
313.15 K, x1 = 0.8518 | 899.7 ± 20 | 1.7 ± 0.09
313.15 K, x1 = 0.9441 | 916.9 ± 20 | 1.57 ± 0.08
313.15 K, x1 = 1 | 928.8 ± 20 | 1.6 ± 0.08
318.15 K, x1 = 0.0807 | 816.9 ± 20 | 5.08 ± 0.26
318.15 K, x1 = 0.1613 | 821.9 ± 20 | 4.45 ± 0.22
318.15 K, x1 = 0.2387 | 827.2 ± 20 | 3.86 ± 0.19
318.15 K, x1 = 0.3519 | 835.9 ± 20 | 3.15 ± 0.16
318.15 K, x1 = 0.4407 | 843.6 ± 20 | 2.69 ± 0.14
318.15 K, x1 = 0.5568 | 855.3 ± 20 | 2.19 ± 0.11
318.15 K, x1 = 0.6517 | 866.3 ± 20 | 1.88 ± 0.1
318.15 K, x1 = 0.7412 | 878.3 ± 20 | 1.67 ± 0.08
318.15 K, x1 = 0.8518 | 895.5 ± 20 | 1.51 ± 0.08
318.15 K, x1 = 0.9441 | 912.6 ± 20 | 1.44 ± 0.07
318.15 K, x1 = 1 | 924.4 ± 20 | 1.46 ± 0.07
323.15 K, x1 = 0.0807 | 813.3 ± 20 | 4.41 ± 0.22
323.15 K, x1 = 0.1613 | 818.3 ± 20 | 3.88 ± 0.2
323.15 K, x1 = 0.2387 | 823.5 ± 20 | 3.43 ± 0.17
323.15 K, x1 = 0.3519 | 832.1 ± 20 | 2.84 ± 0.14
323.15 K, x1 = 0.4407 | 839.8 ± 20 | 2.46 ± 0.12
323.15 K, x1 = 0.5568 | 851.4 ± 20 | 2.05 ± 0.1
323.15 K, x1 = 0.6517 | 862.5 ± 20 | 1.78 ± 0.09
323.15 K, x1 = 0.7412 | 874.4 ± 20 | 1.57 ± 0.08
323.15 K, x1 = 0.8518 | 891.7 ± 20 | 1.42 ± 0.07
323.15 K, x1 = 0.9441 | 908.8 ± 20 | 1.35 ± 0.07
323.15 K, x1 = 1 | 920.7 ± 20 | 1.34 ± 0.07
